Assays:
[1] = tested on: stromal layer of the basement membrane+stromal layer artificial skin model; assay: Inhibition of tissue contraction of basement membrane+stromal layer artificial skin model by blebbistatin; assay type: cell-based
Description: Additionally, the basement membrane+stromal layer model without epithelial cells (Example 1-4) was produced and incubated for 24 hours under conditions of 37° C. and 5% CO2.
After incubation, each sample was imaged with a confocal fluorescence microscope at a wavelength of 488 nm, and the images were synthesized into two-dimensional images by max intensity projection using the ImageJ imaging program. […] However, it could be seen that, in the sample in which tissue contraction had already occurred, tissue contraction was maintained even after subsequent treatment with blebbistatin.

[2] = tested on: stromal cells (fibroblasts) in the stromal layer; assay: Tissue contraction of basement membrane+stromal layer artificial skin model incubated with TGF-β2; assay type: cell-based; conditions: 10 ng/ml TGF-β2 added to DMEM + 10% FBS + 1% P/S; 96 hours, 37° C., 5% CO2; model without epithelial cells (FIGS. 5 and 6)
Description: In order to form wavy ridges in the stromal layer corresponding to the dermal layer of normal skin tissue, tissue contraction is required at the stromal layer boundary that is in contact with the basement membrane. In order to confirm whether the artificial skin model of the present disclosure can mimic this function, a basement membrane+stromal layer model without epithelial cells (Example 1-4) was produced, incubated under conditions of 37° C. and 5% CO2 for 96 hours. Incubation was performed using DMEM containing 10% FBS (fetal bovine serum) and 1% P/S (penicillin/streptomycin), and 10 ng/ml of TGF-β2 (transforming growth factor-beta 2) was additionally added to the test group. FIGS. 5 and 6, respectively, show the results of imaging the incubated model and the results of quantifying the image size relative to the control strain (0) based on 6 mm. The physical property was measured with Anton Paar MCR 92. […] This is believed to be because TGF-β2 increased contraction by activating stromal cells (fibroblasts) in the stromal layer. Therefore, in the following study, a medium supplemented with 10 ng/ml of TGF-β2 was used.

Molecule	tissue contraction at the stromal layer boundary ([1]; 10 μM blebbistatin in control medium (with 10 ng/ml TGF-β2) from the beginning, 24 hours (group Bleb; FIG. 7))	tissue contraction at the stromal layer boundary ([1]; 12 hours control medium, then 12 hours with 10 μM blebbistatin, tissue contraction already occurred (group Bleb after 12 hours; FIG. 7))	tissue contraction at the boundary of the stromal layer [2]
Cc1ccc2c(c1)C(=O)C1(O)CCN(c3ccccc3)C1=N2 (stereo not drawn) [blebbistatin]	inhibited	maintained	–
transforming growth factor-beta 2 (protein, UniProt P61812 303-414, looked up) Transforming growth factor …: ALDAAYCFRNVQDNCCLRPLYIDFKRDLGWKWIHEPKGYNANFCAGACPYLWSSDTQHSRVLSLYNTINPEASASPCCVSQDLEPLTILYYIGKTPKIEQLSNMIVKSCKCS	–	–	well induced
